Laboratory results published in patent EP2072037A1, “Hair dyeing compositions” (Farmen International Cosmetics Distribution S.p.A, priority 2007, dated 2009).

System: HaCaT cells
Assay: MTT cytotoxicity assay on human keratinocytes (skin irritation potential)
Assay type: cell-based
Conditions: two hours
Text: To evaluate the skin irritation potential of compositions C and D (containing paraphenyldiamine) illustrated in example 1, an in vitro test was used, consisting of a cytotoxicity assay performed on a line of human keratinocytes (transformed human keratinocytes, HaCaT cells) that maintain full epidermal differentiation capability.
In this case, the goal of the test was to determine the effects of compositions C and D illustrated in Example 1 on the proliferation of keratinocytes through the cell vitality test, indirectly measured by MTT staining (Mossnam T, […], J. Immunol. Methods, 65:55-63).
The specimen comprising composition C or D was previously mixed with oxidant cream in the proportion 1:1.5 and left to act for 15 minutes. […]
The cells were treated for two hours to simulate the conditions of use of the dye. At the end of the two hours, the cells were subjected to the MTT test.
From this value, the irritant potential of composition C and composition D can be estimated. Negative control comprised no treatment, whereas the surfactant sodium lauryl sulphate (SLS), whose cytotoxicity is well known, was used as positive control. Each experiment was done in triplicate, on cells plated 24 hours previously.

SMILES: CCCCCCCCCCCCOS(=O)(=O)[O-].[Na+] [SLS, sodium lauryl sulphate]
- Cell vitality % (versus negative control) (Dose 0.03 mg/mL): 101.5%
- Cell vitality % (versus negative control) (Dose 0.06 mg/mL): 109.7%
- Cell vitality % (versus negative control) (Dose 0.12 mg/mL): 74.0%
- Cell vitality % (versus negative control) (Dose 0.25 mg/mL): 3.4%
- Cell vitality % (versus negative control) (Dose 0.5 mg/mL): 3.1%
- IC50 (Homo sapiens, 2 h, concentration reducing cell vitality by 50% versus untreated cells, theoretical value from regression curve, MTT): 148 µg/mL
